Consider 29 compounds from ChEMBL document CHEMBL5260858, “Targeting mycobacterial membranes and membrane proteins: Progress and limitations” (Bioorg Med Chem, 2023).

In brackets after ≈: the same amount, converted by molar mass. Bounds are passed on as bounds.

For experiment [1], the system named is Mycobacterium tuberculosis. The experiment can be described thus: Antitubercular activity against Mycobacterium tuberculosis H37Rv assessed as bacterial growth inhibition incubated for 24 hrs by [14C]-acetate labelling based radiometric analysis. The class given is functional.
The test system of experiment [2] is Mycobacterium tuberculosis. Briefly: Antitubercular activity against Mycobacterium tuberculosis H37Rv infected in human monocyte macrophage assessed as bacterial growth inhibition and measured after 21 days by colony counting based analysis. The class given is functional. Conditions: 504 h, time 21 day.
The subject of experiment [3] is Mycobacterium tuberculosis. Briefly: Antitubercular activity against Mycobacterium tuberculosis H37Rv assessed as bacterial growth inhibition by REMA analysis. The experiment is classed as functional.
For experiment [4], the system named is Mycobacterium tuberculosis. The experiment can be described thus: In vivo antimycobacterial activity against Mycobacterium tuberculosis H37Rv infected in BALB/c mouse assessed as reduction in log10 CFU in lungs at 50 mg/kg, po and measured after 4 weeks. The class given is functional.
For experiment [5], the system named is Mycobacterium tuberculosis. The experiment can be described thus: In vivo antimycobacterial activity against Mycobacterium tuberculosis H37Rv infected in BALB/c mouse assessed as reduction in log10 CFU in lungs at 12.5 mg/kg, po and measured after 4 weeks. The experiment is classed as functional.
Experiment [6] concerns Mycobacterium tuberculosis. The experiment can be described thus: Antitubercular activity against Mycobacterium tuberculosis H37Rv assessed as bacterial growth inhibition. The experiment is classed as functional.
For experiment [7], the system named is Mycobacterium tuberculosis. Briefly: Antitubercular activity against Mycobacterium tuberculosis H37Rv infected in human HepG2 cells assessed as reduction in colony forming unit by CFU analysis. The experiment is classed as functional, organism-based.
Experiment [8] concerns Mycobacterium tuberculosis. Briefly: Antitubercular activity against Mycobacterium tuberculosis H37Rv assessed as bacterial growth inhibition and measured upto 14 days by microplate alamar blue assay. The experiment is classed as functional. Particulars: 336 h, time <= 14 day.
For experiment [9], the system named is Mycobacterium tuberculosis. Briefly: Antitubercular activity against Mycobacterium tuberculosis MDR_CHUV assessed as bacterial growth inhibition by REMA analysis. The experiment is classed as functional.
The subject of experiment [10] is Mycobacterium tuberculosis. The experiment can be described thus: Antitubercular activity against Mycobacterium tuberculosis H37Rv assessed as bacterial growth inhibition incubated for 6 days by resazurin based fluorescence assay. Particulars: 144 h, time 6 day. The experiment is classed as functional.
In experiment [11] the test system is Mycobacterium tuberculosis. Briefly: Antimycobacterial activity against Mycobacterium tuberculosis H37Rv assessed as bacterial growth inhibition incubated for 1 week by resazurin reduction microplate assay. The experiment is classed as functional. Particulars: 168 h, time 1 weeks.
Experiment [12] concerns the target T1, Decaprenylphosphoryl-beta-D-ribose oxidase (Mycobacterium tuberculosis (strain ATCC 25618 / H37Rv), UniProt P9WJF1).
T1 sequence (P9WJF1 whole entry): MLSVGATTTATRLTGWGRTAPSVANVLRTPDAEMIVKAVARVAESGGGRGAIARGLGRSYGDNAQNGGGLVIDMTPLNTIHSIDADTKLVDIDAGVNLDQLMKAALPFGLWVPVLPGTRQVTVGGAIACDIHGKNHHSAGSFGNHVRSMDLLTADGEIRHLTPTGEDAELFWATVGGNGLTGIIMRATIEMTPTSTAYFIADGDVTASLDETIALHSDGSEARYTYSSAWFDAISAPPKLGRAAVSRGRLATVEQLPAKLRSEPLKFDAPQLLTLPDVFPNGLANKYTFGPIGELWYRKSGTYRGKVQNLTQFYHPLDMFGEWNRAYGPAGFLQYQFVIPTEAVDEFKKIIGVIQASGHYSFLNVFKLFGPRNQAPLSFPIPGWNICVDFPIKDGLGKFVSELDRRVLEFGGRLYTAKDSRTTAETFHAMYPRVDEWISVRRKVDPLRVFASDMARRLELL
The experiment can be described thus: Inhibition of Mycobacterium tuberculosis H37Rv DprE1 assessed as formation of resorufin using farnesyl-phosphoryl-beta-D-ribofuranose by AmplexRed reagent based fluorescence assay.

Experiment [13] has as its system Mycobacterium tuberculosis. Briefly: Antitubercular activity against Mycobacterium tuberculosis H37Rv expressing GFP assessed as bacterial growth inhibition by measuring GFP fluorescence incubated for 72 hrs by fluorescence analysis. The experiment is classed as functional.
Experiment [14] has as its system Mycobacterium tuberculosis. Briefly: Antimycobacterial activity against Mycobacterium tuberculosis H37Rv ATCC27294 assessed as bacterial growth inhibition incubated for 7 days by microplate Alamar blue assay. The class given is functional. Conditions: H37Rv ATCC27294, 168 h, time 7 day.
For experiment [15], the system named is Mycobacterium tuberculosis. The experiment can be described thus: Antitubercular activity against Mycobacterium tuberculosis H37Rv ATCC25618 assessed as bacterial growth inhibition incubated for 6 days by resazurin based fluorescence analysis. The experiment is classed as functional. Particulars: H37Rv ATCC25618, 144 h, time 6 day.
For experiment [16], the system named is Mycobacterium tuberculosis. Briefly: Antitubercular activity against Mycobacterium tuberculosis H37Rv assessed as bacterial growth inhibition incubated for 7 days by resazurin reduction microplate assay. The experiment is classed as functional. Conditions: 168 h, time 7 day.
Experiment [17] concerns Mycobacterium tuberculosis. Briefly: Antitubercular activity against Mycobacterium tuberculosis H37Rv infected in human THP-1 cells assessed as bacterial growth inhibition incubated for 48 hrs by PrestoBlue staining based fluorescence analysis. The experiment is classed as functional, organism-based. Particulars: THP-1, 48 h.
Experiment [18] has as its system Mycobacterium tuberculosis. The experiment can be described thus: Antitubercular activity against Mycobacterium tuberculosis H37Rv assessed as bacterial growth inhibition incubated for 6 days by resazurin reduction microplate assay. The experiment is classed as functional. Particulars: 144 h, time 6 day.
Experiment [19] concerns Mycobacterium tuberculosis. Briefly: Antitubercular activity against Mycobacterium tuberculosis H37Rv infected in human HepG2 cells assessed as bacterial growth inhibition incubated for 4 weeks by resazurin reduction microtiter assay. Conditions: HepG2, 672 h. The class given is functional, organism-based.
In experiment [20] the test system is Mycobacterium tuberculosis. Briefly: Antimycobacterial activity against Mycobacterium tuberculosis H37Rv assessed as bacterial growth inhibition incubated for 6 days by resazurin dye based assay. The class given is functional. Conditions: 144 h, time 6 day.
The test system of experiment [21] is Mycobacteroides abscessus. Briefly: Antitubercular activity against Mycobacterium abscessus CIP104536 assessed as bacterial growth inhibition incubated 3 to 5 days by resazurin based broth microdilution method. The class given is functional. Particulars: time 3-5 day.
Experiment [22] concerns Mycobacterium tuberculosis. Briefly: Antitubercular activity against Mycobacterium tuberculosis mc2 7000 assessed as bacterial growth inhibition incubated for 6 days by resazurin based fluorescence assay. The experiment is classed as functional. Particulars: mc2 7000, 144 h, time 6 day.

For `CCc1ccc([C@H]2C[C@@H](C(F)(F)F)n3ncc(C(=O)NCc4ccc(F)cc4)c3N2)cc1`, the MIC in experiment [1] came to 0.16 µM (≈ 0.0714 µg/mL).

Turning to `Cc1cc2nc(CCC3CCCCC3)[nH]c2cc1C`, the MIC99 in [2] was 0.145 µM (≈ 0.0372 µg/mL).

In the case of `O=c1nc(N2CCN(CCC3CCCCC3)CC2)sc2c([N+](=O)[O-])cc(C(F)(F)F)cc12`, in [3], the MIC is 0.00019 µg/mL (≈ 0.000404 µM).

For `CC1(C)CCC(NC(=O)c2cc3c(F)cc(F)cc3[nH]2)CC1`, the Activity in [4] was determined as 3.4 log10CFU; in [5], 0.9 log10CFU.

For the compound `CCCCCCCCn1cc(CN2CCC3(CC2)OCCCO3)c2ccc(OC)cc21`, the MIC50 in experiment [6] was determined as 0.5 µM (≈ 0.214 µg/mL).

For the compound `COc1ccc(CNc2nc3cc(C(F)(F)F)ccc3nc2C(=O)O)cc1`, in [7], the IC50 turned out to be 2.5 µM. Besides, the MIC99 in [3] turned out to be 3.1 µM (≈ 1.17 µg/mL).

`Cc1cc(C)c2cc(C(=O)NC3CCCCC3)[nH]c2c1`: the minimal inhibitory concentration (MIC) in experiment [8] was determined as 0.125 µg/mL (≈ 0.462 µM).

In the case of `O=c1nc(N2CCN(CC3CCCCC3)CC2)sc2c([N+](=O)[O-])cc(C(F)(F)F)cc12` [MACOZINONE], the MIC99 in experiment [9] is 0.0004 µg/mL (≈ 0.000876 µM); in [6], 0.003 µg/mL (≈ 0.00657 µM).

Turning to `c1cc2c(s1)CCOC21CCN(Cc2ccc3c(c2)OCCO3)CC1`, the MIC in experiment [10] was found to be 0.38 µM (≈ 0.136 µg/mL).

Take `NC(=O)c1cnccn1` [PYRAZINAMIDE]: the MIC in [6] worked out at 3.12 µg/mL.

As to `O=c1nc(N2CCN(CC3CCCCC3)CC2)sc2c(-n3cccc3)cc(C(F)(F)F)cc12`, the MIC in experiment [11] was 0.34 µM (≈ 0.162 µg/mL). Besides, the IC50 in [12] is less than 8 µM.

On to `O=c1nc(N2CCN(CCCCc3ccccc3)CC2)sc2c([N+](=O)[O-])cc(C(F)(F)F)cc12`, for which, in [3], the MIC stood at 0.00035 µg/mL (≈ 0.000711 µM).

Regarding `CC(C)(C)c1ccc(Cn2cnc([N+](=O)[O-])n2)cc1`, the IC90 in [13] is 0.5 µM.

On to `O=c1nc(N2CCC3(CCN(Cc4ccc(F)cc4)C3)CC2)sc2c([N+](=O)[O-])cc(C(F)(F)F)cc12`, for which the MIC in experiment [14] was less than 0.035 µM.

`CCc1nc2ccc(Cl)cn2c1C(=O)NCc1ccc(N2CCC(c3ccc(OC(F)(F)F)cc3)CC2)cc1` [TELACEBEC]: in experiment [6], the MIC amounted to 0.0027 µM.

Take `C[C@H]1COC2(CCN(c3nc(=O)c4cc(C(F)(F)F)cc(-n5cccc5)c4s3)CC2)O1`: the MIC in experiment [11] came to 0.35 µM (≈ 0.158 µg/mL). Moreover, in [12], the IC50 is less than 8 µM.

On to `CCOc1ccc(CNc2nc3cc(C(F)(F)F)ccc3nc2C(=O)O)cc1`, for which the MIC99 in experiment [3] stood at 3.1 µM (≈ 1.21 µg/mL).

In the case of `Brc1ccc2[nH]c(CCC3CCCCC3)nc2c1`, the MIC99 in experiment [2] was determined as 2.44 µM (≈ 0.75 µg/mL).

Regarding `CCc1ccc(NC(=O)COc2cc(C)nc3ccc(OC)cc23)cc1`, the minimal inhibitory concentration (MIC) in experiment [15] stood at 0.02 µg/mL (≈ 0.0571 µM).

On to `CCSc1nc(NC)c2cccc(F)c2n1`, for which the MIC in experiment [16] amounted to 0.04 µg/mL (≈ 0.169 µM). For the same compound, the IC50 in experiment [17] turned out to be 0.013 µg/mL (≈ 0.0548 µM).

For the compound `CC1(C)CCC(NC(=O)c2cc3c(Cl)cc(Cl)cc3[nH]2)CC1`, the Activity is listed as 3.82 log10CFU in [4] and 1.24 log10CFU in experiment [5].

With `O=C(/C=C/c1ccsc1)N1CCN(Cc2ccc3c(c2)OCO3)CC1`, in experiment [18], the MIC stood at 0.1 µg/mL (≈ 0.281 µM). Besides, in experiment [19], the IC50 is 0.3 µg/mL (≈ 0.842 µM).

For `CCS(=O)(=O)N1CCN(c2nc(=O)c3cc(C(F)(F)F)cc([N+](=O)[O-])c3s2)CC1`, the MIC in experiment [20] is 0.003 µg/mL (≈ 0.00663 µM).

Turning to `Cc1cc(C)c2cc(C(=O)NC3CCCCCC3)[nH]c2c1`, in experiment [8], the MIC was 0.0156 µg/mL (≈ 0.0549 µM).

Turning to `OC1(c2ccc(Cl)c(C(F)(F)F)c2)CCN(Cc2ccccc2I)CC1`, the MIC99 in experiment [21] was found to be 0.125 µg/mL (≈ 0.252 µM).

Take `CC(C)/N=c1\cc2n(-c3ccc(Cl)cc3)c3ccccc3nc-2cc1Nc1ccc(Cl)cc1` [CLOFAZIMINE]: in experiment [6], the MIC amounted to 0.12 µg/mL.

Regarding `CCCCCCCCn1cc(CN2CCCCCC2)c2c(F)cccc21`, the MIC50 in experiment [6] amounted to 2.3 µM (≈ 0.825 µg/mL).

For `CCOC(=O)c1c(-c2ccccc2)oc2ccc(O)c(CN3CCCCC3)c12`, the MIC in [22] turned out to be 0.4 µM (≈ 0.152 µg/mL).

For the compound `O=c1nc(N2CC3CN(Cc4ccc(OC(F)(F)F)cc4)CC3C2)sc2c([N+](=O)[O-])cc(C(F)(F)F)cc12` (configuration not stated), the MIC in experiment [14] was less than 0.035 µM.
